In patent US10736883B2, “Triazole furan compounds as agonists of the APJ receptor” (AMGEN INC., priority 2016, dated 2020):
pEC50: −log10 of the molar value. Blank lines part the entries; values can stand above or below the compound they belong to.

Assays:
[1] = tested on: isolated perfused rat hearts; assay: Ex vivo isolated perfused rat heart (Langendorff) assay, load independent inotropic/lusitropic effects; settings: percent change over vehicle; for Isolated Heart Assay dP/dtmax (%): contractility; for Isolated Heart Assay dP/dtmin (%): relaxation
Description: Evidence for Load Independent Inotropic Effects with APJ Agonists Using Ex Vivo Assay (Isolated Perfused Rat Hearts)
Naive Sprague Dawley® SD rats (Harlan laboratories (Livermore, Calif. USA)) were anaesthetized and hearts were excised followed by cannulation in the Langendorff apparatus (Harvard apparatus, Holliston, Mass. USA) via aorta. The heart was perfused retrograde with modified oxygenated Krebs-Henseleit buffer (Skrzypiec-Spring M et al., (2007) J. Pharmacol Toxicol Methods 55: 113-126). The pressure of the solution causes the aortic valve to shut and the perfusate is then forced into the ostium and the coronary vessels. This allows the heart to beat for several hours. A balloon was inserted into the left ventricle (LV) to measure dP/dtmax (derivative of left ventricular pressure) as an index of cardiac contractility. The APJ agonist was perfused constantly in a dose dependent manner into the heart to examine cardiac contractility.
Example 210.0 was infused at different concentrations and load independent contractility was measured by index of LV dP/dtmax and the results are expressed as a percent change over vehicle. […] Example 210.0 was infused at different concentrations and load independent lusitropic effect (relaxation) was measured by index of LV dP/dtmin where results are expressed as percent change over vehicle. […] Example 51.0 was infused at different concentrations and load independent contractility was measured by index of LV dP/dtmax and the results are expressed as a percent change over vehicle. […] Example 51.0 was infused at different concentrations and load independent lusitropic effect (relaxation) was measured by index of LV dP/dtmin where results are expressed as percent change over vehicle.

APJ receptor [2] = target: T1, APJ receptor (Homo sapiens (Human), UniProt P35414); assay: [35S]GTPγS binding assay on membranes from CHO cells stably expressing human APJ receptor; assay type: biochemical; settings: membranes of CHO cells stably expressing human APJ receptor, means of several independent experiments, read-out: Activity hAPJ SPA EC50 IP
Summary of the method: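 Membranes from CHO cells stably expressing human APJ were incubated with 0.2 nM [35S]GTPγS and ligands for 90 min at RT in 20 mM HEPES pH 7.5, 5 mM MgCl2, 200 mM NaCl, 3 μM GDP, 0.1% BSA with WGA PS beads. Nonspecific binding was set with 100 μM GTPγS. EC50 came from non-linear regression.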

heart failure rat model = assay: In vivo cardiac contractility in heart failure (MI) rat model; settings: heart failure rats (LAD ligation), acute administration for 30 min
Procedure: Evidence for Improvement in Cardiac Contractility In Vivo in Heart Failure Rat Model
Based on the ex vivo findings in isolated heart assay, APJ agonists were dosed in vivo to investigate the translation of cardiac contractility in in vivo settings. Male Lewis rats (Charles River, USA) at 2-3 months of age were used for the study. Heart failure was induced by permanent ligation of the left descending coronary artery which results in injury to the heart with an ejection fraction of <35%. APJ agonists were administered dose dependently acutely for a period of 30 min. Administration of example compounds lead to an increase in cardiac contractility as measured by dP/dtmax (derivative of left ventricular pressure) (Table 27).

[3] = tested on: MI-induced heart failure rats; assay: Cardiovascular effects of Example 56.0 and captopril/losartan on MI-induced heart failure rats; assay type: in vivo, rat
Procedure: Cardiovascular Effects of Example 56.0 and Captopril/Losartan on MI-Induced Heart Failure Rats
Male Lewis rats at 2-3 months of age were used for the study. MI was induced by ligation of the LAD. Echocardiography (Echo) was performed at one-week post-MI on rats for verification of infarct size and animal enrollment Animals with ejection fractions more than 40% or no visible infarct in myocardium were excluded from the study. All eligible MI rats were randomly divided into 3 groups: 1) those treated with vehicle; 2) those treated with losartan (0.5 g/L in drink water); and 3) those treated with captopril (0.5 g/L in drink water). Treatments were initiated approximately five weeks post-MI and animals were continuously treated with losartan and captopril in drinking water up to 15 days prior to being assigned into each subgroup. These subgroup groups included the following: 1) cohort treated with vehicle; 2) cohort treated with Example 56.0 at various doses; 3) cohort treated only with losartan; 4) cohort treated with losartan and Example 56.0 at various doses; 5) cohort treated only with captopril; and 6) cohort treated with captopril and Example 56.0 at various doses. A Millar PV catheter was inserted into the right common carotid artery and then advanced to the left ventricle (LV) for cardiac hemodynamic assessment and the peripheral arterial pressure was also monitored by a pressure transducer via a femoral artery access in all rats. Following hemodynamic stabilization, baseline steady-state data was acquired Animals in any Example 56 treated group received intravenous infusion of Example 56.0 in a dose-escalated fashion during cardiac hemodynamic assessment. Blood was drawn for actual PK exposure to derive a PK/PD profile.

isolated rat heart = assay: Isolated rat heart assay with APJ agonist in the presence or absence of AT1R blocker losartan
Description: Evidence for Blockade of AT1R Signaling Enhances the APJ Receptor Signaling Using Ex-Vivo (Isolated Rat Heart Assay) and In Vivo (Myocardial Infraction (MI)-Induced Heart Failure Model)
Naive Sprague Dawley® SD rats were anaesthetized and hearts were excised followed by cannulation in the Langendorff apparatus via aorta. The heart was perfused retrograde with modified oxygenated Krebs-Henseleit buffer. The pressure of the solution causes the aortic valve to shut and the perfusate was then forced into the ostium and the coronary vessels. This allowed the heart to beat for several hours. A balloon was inserted into the left ventricle to measure dp/dtmax as an index of cardiac contractility. The APJ agonist (Example 56.0) was perfused in the presence or absence of AT1R blocker losartan.

[4] = tested on: ex vivo naive Sprague Dawley rat hearts; assay: Langendorff isolated perfused rat heart (ex vivo); settings: Langendorff apparatus; for left ventricular dP/dtmax (cardiac contractility) / left ventricular dP/dtmin (cardiac relaxation): isolated perfused rat hearts, compared with vehicle / control (DMSO)
Description: FIG. 1A is a graph of left ventricular dP/dtmax as a function of concentration of Example 210.0 compared with vehicle in ex vivo naive Sprague Dawley rat hearts obtained using the Langendorff apparatus.
FIG. 1B is a graph of left ventricular dP/dtmin as a function of concentration of Example 210.0 compared with vehicle in ex vivo naive Sprague Dawley rat hearts obtained using the Langendorff apparatus.
FIG. 2A is a graph of left ventricular dP/dtmax as a function of concentration of Example 51.0 compared with vehicle in ex vivo naive Sprague Dawley rat hearts obtained using the Langendorff apparatus.
FIG. 2B is a graph of left ventricular dP/dtmin as a function of concentration of Example 51.0 compared with vehicle in ex vivo naive Sprague Dawley rat hearts obtained using the Langendorff apparatus.

APJ receptor [5] = target: T1, APJ receptor; settings: apelin-36, apelin-17 and apelin-13 compared; cited from earlier work
[6] = Example 56.0 alone over vehicle, intravenous infusion, MI rats
[7] = losartan alone compared to control (DMSO)

T1 sequence (P35414 whole entry): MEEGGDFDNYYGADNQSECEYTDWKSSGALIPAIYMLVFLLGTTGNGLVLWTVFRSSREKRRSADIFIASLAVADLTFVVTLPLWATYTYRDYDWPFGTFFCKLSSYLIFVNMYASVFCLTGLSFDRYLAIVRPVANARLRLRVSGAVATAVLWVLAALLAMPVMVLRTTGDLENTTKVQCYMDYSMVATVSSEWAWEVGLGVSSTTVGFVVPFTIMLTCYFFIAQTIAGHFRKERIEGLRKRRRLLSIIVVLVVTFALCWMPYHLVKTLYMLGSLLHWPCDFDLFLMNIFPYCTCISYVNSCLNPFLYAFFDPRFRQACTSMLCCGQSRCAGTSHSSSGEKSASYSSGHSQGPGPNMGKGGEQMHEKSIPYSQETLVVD

pEC50 (APJ receptor [2]): 9.00
Compound: COc1cccc(OC)c1-n1c(NS(=O)(=O)[C@@H](C)Cc2ncc(F)cn2)nnc1-c1ccco1 (single isomer, unassigned) [Example 51.0, (2S)—N-(4-(2,6-Dimethoxyphenyl)-5-(2-furanyl)-4H-1,2,4-triazol-3-yl)-1-(5-fluoro-2-pyrimidinyl)-2-propanesulfonamide or (2R)—N-(4-(2,6-dimethoxyphenyl)-5-(2-furanyl)-4H-1,2,4-triazol-3-yl)-1-(5-fluoro-2-pyrimidinyl)-2-propanesulfonamide]
Isolated Heart Assay dP/dtmax (%) [1]: 40.6%
Isolated Heart Assay dP/dtmin (%) [1]: 33.8%
MI Rat Model dP/dtmax (%) (heart failure rat model): 38%

pEC50 (APJ receptor [2]): 9.59
Compound: COc1cccc(OC)c1-n1c(NS(=O)(=O)CCN2C(=O)N(C)CC[C@@H]2C)nnc1-c1ccc(C)o1 (single isomer, unassigned) [Example 204.0, N-(4-(2,6-Dimethoxyphenyl)-5-(5-methyl-2-furanyl)-4H-1,2,4-triazol-3-yl)-2-((6S)-3,6-dimethyl-2-oxotetrahydro-1 (2H)-pyrimidinyl)ethanesulfonamide ethanesulfonamide or N-(4-(2,6-dimethoxyphenyl)-5-(5-methyl-2-furanyl)-4H-1,2,4-triazol-3-yl)-2-((6R)-3,6-dimethyl-2-oxotetrahydro-1(2H)-pyrimidinyl)ethanesulfonamide]
Isolated Heart Assay dP/dtmax (%) [1]: 24.6%
Isolated Heart Assay dP/dtmin (%) [1]: 29.0%
MI Rat Model dP/dtmax (%) (heart failure rat model): No effect

Compound: C[C@H](CS)C(=O)N1CCC[C@H]1C(=O)O [Captopril, captopril, reference compound]
contractility or ejection fraction ([3]; captopril alone, acute settings, heart failure rats in vivo): does not show a marked improvement

Compound: COc1cccc(OC)c1-n1c(NS(=O)(=O)CCc2ncc(C)cn2)nnc1-c1ccc(C)o1 [Example 26.0, N-(4-(2,6-dimethoxyphenyl)-5-(5-methyl-2-furanyl)-4H-1,2,4-triazol-3-yl)-2-(5-methyl-2-pyrimidinyl)ethanesulfonamide]
Isolated Heart Assay dP/dtmax (%) [1]: 10.20%
Isolated Heart Assay dP/dtmin (%) [1]: 11.1%
pEC50 (APJ receptor [2]): 9.38
MI Rat Model dP/dtmax (%) (heart failure rat model): 58%

Compound: COc1cccc(OC)c1-n1c(NS(=O)(=O)[C@@H](C)[C@H](C)c2ncc(F)cn2)nnc1-c1ccc(C)o1 [Example 56.0, (2S,3R)—N-(4-(2,6-dimethoxyphenyl)-5-(5-methyl-2-furanyl)-4H-1,2,4-triazol-3-yl)-3-(5-fluoro-2-pyrimidinyl)-2-butanesulfonamide]
heart rate ([3]; Example 56.0 alone or in combination with an ARB or ACE inhibitor, MI rats): did not significantly change
dp/dtmax [3, 6]: increase
ejection fraction [3, 6]: increase
contractile function ([3]; plus losartan or captopril, over Example 56.0 therapy alone, MI rats): further augmented
Isolated Heart Assay dP/dtmax (%) [1]: 23.0%
Isolated Heart Assay dP/dtmin (%) [1]: 24.9%
pEC50 (APJ receptor [2]): 10.15
inotropic effects (isolated rat heart; APJ agonist alone): dose-dependent increase
Emax on co-infusion of AT1R blocker losartan (isolated rat heart; co-infusion of losartan): increased
increase of potency on co-infusion of AT1R blocker losartan (isolated rat heart; co-infusion of losartan): 5 fold
MI Rat Model dP/dtmax (%) (heart failure rat model): 30%

Compound: COc1cccc(OC)c1-n1c(NS(=O)(=O)CCc2ccc(Cl)cc2)nnc1-c1ccco1 [Example 111.0, 2-(4-Chlorophenyl)-N-(4-(2,6-dimethoxyphenyl)-5-(furan-2-yl)-4H-1,2,4-triazol-3-yl)ethanesulfonamide]
Isolated Heart Assay dP/dtmax (%) [1]: 19.5%
Isolated Heart Assay dP/dtmin (%) [1]: 24.9%
pEC50 (APJ receptor [2]): 8.11
MI Rat Model dP/dtmax (%) (heart failure rat model): 97%

Compound: COc1cccc(OC)c1-n1c(NS(=O)(=O)[C@@H](C)[C@H](O)c2ncc(F)cn2)nnc1-c1ccc(C)o1 [Example 115.0, (1R,2S)-N-(4-(2,6-dimethoxyphenyl)-5-(5-methylfuran-2-yl)-4H-1,2,4-triazol-3-yl)-1-(5-fluoropyrimidin-2-yl)-1-hydroxypropane-2-sulfonamide]
Isolated Heart Assay dP/dtmax (%) [1]: 32.6%
Isolated Heart Assay dP/dtmin (%) [1]: 34.7%
pEC50 (APJ receptor [2]): 9.70
MI Rat Model dP/dtmax (%) (heart failure rat model): 30%

pEC50 (APJ receptor [2]): 8.49
Compound: COc1cccc(OC)c1-n1c(NS(=O)(=O)CCc2ccc(F)cc2C#N)nnc1-c1ccco1 [Example 210.0, 2-(2-Cyano-4-fluorophenyl)-N-(4-(2,6-dimethoxyphenyl)-5-(2-furanyl)-4H-1,2,4-triazol-3-yl)ethanesulfonamide]
left ventricular dP/dtmax (cardiac contractility) [4]: increases load independent cardiac contractility
left ventricular dP/dtmin (cardiac relaxation) [4]: increases load independent cardiac relaxation
Isolated Heart Assay dP/dtmax (%) [1]: 25.9%
Isolated Heart Assay dP/dtmin (%) [1]: 34.0%
MI Rat Model dP/dtmax (%) (heart failure rat model): 95.6%

Compound: COc1cccc(OC)c1-n1c(NS(=O)(=O)[C@@H](C)[C@H](OC)c2ncc(C)cn2)nnc1-c1ccc(C)o1 [Example 261.0]
Isolated Heart Assay dP/dtmax (%) [1]: 34.5%
Isolated Heart Assay dP/dtmin (%) [1]: 53.8%
pEC50 (APJ receptor [2]): 9.89
MI Rat Model dP/dtmax (%) (heart failure rat model): 30%

Compound: CCCCc1nc(Cl)c(CO)n1Cc1ccc(-c2ccccc2-c2nn[nH]n2)cc1 [losartan]
left ventricular (LV) developed pressure (DevP) ([4]; compared with control (DMSO)): no impact on developed pressure
left ventricular (LV) systolic pressure (Sys) ([4]; compared with control (DMSO)): no impact on systolic pressure
left ventricular dP/dtmax (cardiac contractility) [4]: no impact on cardiac contraction
left ventricular dP/dtmin (cardiac relaxation) [4]: no impact on cardiac relaxation
cardiac contraction (dp/dtmax) (isolated rat heart; [7]): did not have any impact
cardiac relaxation (dp/dtmin) (isolated rat heart; [7]): did not have any impact
developed pressure (DevP) (isolated rat heart; [7]): did not have any impact
systolic pressure (Sys) (isolated rat heart; [7]): did not have any impact

Compound: Apelin-36 (LVQPRGSRNGPGPWQGGRRKFRRQRPRLSHKGPMPF; Apelin-36; UniProt Q9ULZ1 42-77, looked up)
in vitro activity (relative potency) (APJ receptor [5]): approximately equipotent

Compound: apelin-17
in vitro activity (relative potency) (APJ receptor [5]): approximately equipotent
